Measured values as given in US7781454B2 (priority 2006, dated 2010).
Where a name gives a salt, the structure may show the parent alone. Read-outs that look alike come from different tables or passages of the source.

Experiments:
[1] = target: T1, mutant HIV reverse transcriptase (K103N mutation) (Human immunodeficiency virus type 1 group M subtype B, UniProt P04585, K690N); assay: ECL assay for inhibition of mutant HIV reverse transcriptase (K103N); type: biochemical
T1 construct: against mutant HIV reverse transcriptase; made in house
Method: (§1) 100 μL reaction mixtures were initiated with a combination of primer-template substrate ([…]) and dNTPs (0.6 μM dNTPs, 1.25 μM BrdUTP). The heterodimeric nucleic acid substrate was generated by annealing the DNA primer pD500 (described in Shaw-Reid et al., J. Biol. Chem., 278: 2777-2780; obtained from Integrated DNA Technologies) to t500, a 500 nucleotide RNA template created by in vitro transcription (see Shaw-Reid et al., J. Biol. Chem., 278: 2777-2780). After 1 hour incubation at 37° C., reactions were quenched by 10 μL of 1 N NaOH. Microtiter plates were incubated for an additional 30 minutes at room temperature and then neutralized with 10 μL of 1 N HCl. A mixture of detection buffer containing ruthenylated anti-BrdU antibody and streptavidin coated magnetic beads were added to the plate and incubated at room temperature for 1.5 hours prior to quantification via electrochemiluminescence instrument.
(§2) Analogous assays were conducted substituting mutant HIV strains to determine the in vitro inhibition of compounds of the present invention against mutant HIV reverse transcriptase. In one strain the reverse transcriptase has the Y181C mutation and in the other strain the reverse transcriptase has the K103N mutation. The mutations were generated with the QUIKCHANGE site-directed mutagenesis kit (Stratagene).

[2] = target: HIV-1 RT enzyme (wild-type) (Human immunodeficiency virus type 1 group M subtype B, UniProt P04585); assay: ECL assay for inhibition of HIV reverse transcriptase (WT); type: biochemical
Method: as §1

[3] = target: T2, mutant HIV reverse transcriptase (Y181C mutation) (Human immunodeficiency virus type 1 group M subtype B, UniProt P04585, Y768C); assay: ECL assay for inhibition of mutant HIV reverse transcriptase (Y181C); type: biochemical
T2 construct: against mutant HIV reverse transcriptase; made in house
Method: as §1, §2

wild type HIV-1 = assay: Spread assay: inhibition of acute HIV-1 infection of T-lymphoid cells (WT); type: cell-based; settings: Human immunodeficiency virus 1, T-lymphoid; wild-type strain; 10% FBS; read-out: Spread (WT) CIC95
Method: (§3) Assays for the inhibition of acute HIV-1 infection of T-lymphoid cells (alternatively referred to herein as the “spread assay”) were conducted in accordance with Vacca, J. P. et al., Proc. Natl. Acad. Sci. USA 1994, 91: 4096. The assays tested for inhibition of wild type HIV-1 and of HIV strains containing the Y181C or K103N mutation. […] The compounds of Examples 1 to 4 had CIC95 values of less than 10 micromolar in the assay employing the K103N mutant strain. […] Table C also reports the CIC95 values of the compounds of Examples 1-7, 9-13 and 15-29 obtained in the assays employing the Y181C mutant strain and the K103N mutant strain.

[4] = test system: HIV strain containing the K103N mutation; assay: Spread assay: inhibition of HIV replication (K103N mutant strain); type: cell-based; settings: Human immunodeficiency virus 1, read-out: Spread (K103N) CIC95
Method: as §3

[5] = test system: HIV strain containing the Y181C mutation; assay: Spread assay: inhibition of HIV replication (Y181C mutant strain); type: cell-based; settings: Human immunodeficiency virus 1, read-out: Spread (Y181C) CIC95
Method: as §3

[6] = K103N mutant RT, read-out: ECL Assay (K103N) IC50
[7] = Y181C mutant RT, read-out: ECL Assay (Y181C) IC50

| SMILES | IC50 [1, 6] [µM] | IC50 [2] [µM] | IC50 [3, 7] [µM] | IC95 (wild type HIV-1) [µM] | IC95 [4] [µM] | IC95 [5] [µM] | IC50 [1] [µM] | IC50 [3] [µM] |
| --- | --- | --- | --- | --- | --- | --- | --- | --- |
| N#Cc1cc(Cl)cc(Oc2c(Cl)ccc3c2nnn3CCO)c1 [Example 28, 3-chloro-5-{[5-chloro-1-(2-hydroxyethyl)-1H-1,2,3-benzotriazol-4-yl]oxy}benzonitrile] | 0.21 | 0.068 | 0.077 | 0.557 | > 0.833 | – | – | – |
| N#Cc1cc(Cl)cc(Oc2c(Cl)ccc3c2nnn3CC(=O)Nc2ccccc2Cl)c1 [Example 12, 2-[5-chloro-4-(3-chloro-5-cyanophenoxy)-1H-1,2,3-benzotriazol-1-yl]-N-(2-chlorophenyl)acetamide] | 0.00094 | 0.00045 | 0.00089 | 0.023 | 0.041 | 0.137 | – | – |
| N#Cc1cc(Cl)cc(Oc2c(Cl)ccc3c2CCCN3Cc2n[nH]c3ncccc23)c1 [Example 27, 3-chloro-5-{[6-chloro-1-(1H-pyrazolo[3,4-b]pyridine-3-ylmethyl)-1,2,3,4-tetrahydroquinolin-5-yl]oxy}benzonitrile] | 0.64 | 0.16 | 0.16 | 3.28 | 7.73 | – | – | – |
| N#Cc1cc(Cl)cc(Oc2c(Cl)ccc3c2cnn3Cc2n[nH]c3c2ccc[n+]3[O-])c1 [Example 5, 3-chloro-5-({5-chloro-1-[(7-oxido-1H-pyrazolo[3,4-b]pyridin-3-yl)methyl]-1H-indazol-4-yl}oxy)benzonitrile] | 0.0013 | 0.00062 | 0.0018 | 0.011 | 0.023 | 0.105 | – | – |
| Cc1ccn2c(Cc3n[nH]c4ncccc34)ncc2c1Oc1cc(Cl)cc(C#N)c1 [Example 25, 3-chloro-5-{[7-methyl-3-(1H-pyrazolo[3,4-b]pyridin-3-ylmethyl)imidazo[1,5-a]pyridin-8-yl]oxy}benzonitrile trifluoroacetate] | – | 0.02 | – | 0.115 | 0.362 | – | 0.037 | 0.033 |
| N#Cc1cc(Cl)cc(Oc2c(Cl)ccc3c2ncn3Cc2n[nH]c3ncccc23)c1 [Example 7, 3-chloro-5-{[5-chloro-1-(1H-pyrazolo[3,4-b]pyridin-3-ylmethyl)-1H-benzimidazol-4-yl]oxy}benzonitrile dihydrochloride] | – | 0.00092 | – | 0.028 | 0.039 | 0.225 | 0.0041 | 0.0017 |
| N#Cc1cc(Cl)cc(Oc2c(Cl)ccc3c2cnn3Cc2n[nH]c3ncccc23)c1 [Example 1, 3-Chloro-5-{[5-chloro-1-(1H-pyrazolo[3,4-b]pyridin-3-ylmethyl)-1H-indazol-4-yl]oxy}benzonitrile] | 0.00057 | 0.00035 | 0.0006 | 0.013 | 0.017 | 0.069 | – | – |
| N#Cc1cc(Cl)cc(Oc2c(Cl)ccc3c2nnn3Cc2nnc(-c3ccccc3)o2)c1 [Example 23, 3-chloro-5-({5-chloro-1-[(5-phenyl-1,3,4-oxadiazol-2-yl)methyl]-1H-1,2,3-benzotriazol-4-yl}oxy)benzonitrile] | 0.01 | 0.0061 | 0.0034 | 0.096 | > 0.833 | – | – | – |
| N#Cc1cc(Cl)cc(Oc2c(Cl)ccc3c2nnn3Cc2n[nH]c3nc(N)ccc23)c1 [Example 6, 3-({1-[(6-amino-1H-pyrazolo[3,4-b]pyridin-3-yl)methyl]-5-chloro-1H-1,2,3-benzotriazol-4-yl}oxy)-5-chlorobenzonitrile] | 0.00053 | 0.0004 | 0.00082 | 0.003 | < 0.004 | 0.025 | – | – |
| NCc1cc(Cl)cc(Oc2c(Cl)ccc3c2nnn3Cc2n[nH]c3ncccc23)c1 [Example 17, (3-chloro-5-{[5-chloro-1-(1H-pyrazolo[3,4-b]pyridin-3-ylmethyl)-1H-1,2,3-benzotriazol-4-yl]oxy}phenyl)methanaminium trifluoroacetate] | – | 0.038 | – | 0.06 | 0.262 | > 0.833 | 0.079 | 0.074 |
| N#Cc1cc(C#N)cc(Oc2c(Cl)ccc3c2nnn3Cc2n[nH]c3ncccc23)c1 [Example 29, 5-{[5-chloro-1-(1H-pyrazolo[3,4-b]pyridin-3-ylmethyl)-1H-1,2,3-benzotriazol-4-yl]oxy}isophthalonitrile] | 0.0014 | 0.0009 | 0.0013 | 0.0025 | 0.0031 | – | – | – |
| N#Cc1cc(Cl)cc(Oc2c(Cl)ccc3nn(Cc4nnc(-c5ccccc5)o4)nc23)c1 [Example 24, 3-chloro-5-({5-chloro-2-[(5-phenyl-1,3,4-oxadiazol-2-yl)methyl]-2H-1,2,3-benzotriazol-4-yl}oxy)benzonitrile] | 0.15 | 0.046 | 0.047 | > 0.833 | > 0.833 | – | – | – |
| CN(Cc1ccccc1Cl)C(=O)Cn1nnc2c(Oc3cc(Cl)cc(C#N)c3)c(Cl)ccc21 [Example 9, N-(2-chlorobenzyl)-2-[5-chloro-4-(3-chloro-5-cyanophenoxy)-1H-1,2,3-benzotriazol-1-yl]-N-methylacetamide] | 0.074 | 0.061 | 0.137 | 0.77 | 0.807 | – | – | – |
| NCc1cc(Cl)cc(Oc2c(Cl)ccc3c2nnn3Cc2n[nH]c3ncccc23)c1Cl [Example 21, 1-(2,5-dichloro-3-{[5-chloro-1-(1H-pyrazolo[3,4-b]pyridin-3-ylmethyl)-1H-1,2,3-benzotriazol-4-yl]oxy}phenyl)methanamine] | 0.0042 | – | – | 0.058 | 0.192 | 0.417 | – | – |
| N#Cc1cc(Cl)cc(Oc2c(Cl)ccc3c2c(Cl)nn3Cc2n[nH]c3ncccc23)c1 [Example 2, 3-Chloro-5-{[3,5-dichloro-1-(1H-pyrazolo[3,4-b]pyridin-3-ylmethyl)-1H-indazol-4-yl]oxy}benzonitrile] | 0.012 | 0.0039 | 0.025 | 0.521 | 2.09 | – | – | – |
| N#Cc1cc(Cl)cc(Oc2c(Cl)ccc3c2nnn3CC(=O)c2cccnc2)c1 [Example 11, 3-chloro-5-{[5-chloro-1-(2-oxo-2-pyridin-3-ylethyl)-1H-1,2,3-benzotriazol-4-yl]oxy}benzonitrile] | 0.052 | 0.018 | 0.03 | 0.381 | 0.433 | – | – | – |
| N#Cc1cc(Cl)cc(Oc2c(Cl)ccc3c2nnn3Cc2n[nH]c3nc(N)ccc23)c1Cl [Example 22, 3-({1-[(6-amino-1H-pyrazolo[3,4-b]pyridin-3-yl)methyl]-5-chloro-1H-1,2,3-benzotriazol-4-yl}oxy)-2,5-dichlorobenzonitrile] | 0.0008 | 0.00052 | 0.00079 | 0.004 | 0.009 | – | – | – |
| N#Cc1cc(Cl)cc(Oc2c(Cl)ccc3nn(Cc4n[nH]c5ncccc45)nc23)c1Cl [Example 20, 2,5-dichloro-3-{[5-chloro-2-(1H-pyrazolo[3,4-b]pyridin-3-ylmethyl)-2H-1,2,3-benzotriazol-4-yl]oxy}benzonitrile] | 0.055 | 0.0021 | 0.0025 | 0.42 | > 0.833 | – | – | – |
| N#Cc1cc(Cl)cc(Oc2c(Cl)ccc3c2nnn3CC(=O)N2CCCC(C(N)=O)C2)c1 (centres unmarked) [Example 16, 1-{[5-chloro-4-(3-chloro-5-cyanophenoxy)-1H-1,2,3-benzotriazol-1-yl]acetyl}piperidine-3-carboxamide] | > 1.8 | 1.1 | 0.79 | > 0.833 | > 0.833 | – | – | – |
| N#Cc1cc(Cl)cc(Oc2c(Cl)ccc3c2nnn3CC(=O)OCc2ccccc2)c1 [Example 15] | 0.012 | 0.0024 | 0.0015 | > 0.833 | > 0.833 | – | – | – |
| Cc1ccn2c(Cc3n[nH]c4ncccc34)nnc2c1Oc1cc(Cl)cc(C#N)c1 [Example 26, 3-chloro-5-{[7-methyl-3-(1H-pyrazolo[3,4-b]pyridin-3-ylmethyl)[1,2,4]triazolo[4,3-a]pyridin-8-yl]oxy}benzonitrile trifluoroacetate] | – | 0.22 | – | > 0.833 | > 0.833 | – | 0.82 | 1.2 |
